The Ki is a measure of affinity in units of concentration, obtained from inhibition or displacement. A low value points to tighter binding.

One assay has as its system B. subtilis. The experiment in a line: Minimal Inhibitory Concentration (MIC) determination, 96 well plates. The assay is classed as cell-based, Bacillus subtilis. The following applies: Bacillus subtilis; HBI medium, 16 to 18 hours at 37°C; read-out: MIC (µg/ml) B. subtilis. On the procedure: (§1) The following methods were used to characterize representative compounds. Minimal Inhibitory Concentration (MIC) determinations. MIC values were determined in 96 well plates, with bacterial growth monitored at OD 600 nm in 200µl following an initial bacterial seeding at approximately 1x10^5 colony forming units (CFU)/ml. Each drug is evaluated at five concentrations, with five data points at each dilution. MIC values (µg/ml) were determined against actively growing cultures in Heart-Brain Infusion (HBI) medium. Cell growth in cultures supplemented with a test compound was calculated as a percent of control at OD 600 nm after 16 to 18 hours at 37°C. […] Polymerase IIIC (Pol IIIC) assay. DNA polymerase activity (or inhibition thereof) was measured in a 96-well plate format. B. subtilis Pol IIIC was isolated as described by Hammond and Brown (Protein Expr. Purif., 3: 65-70 (1992)). Each 25 µl assay contained 30 mM Tris, pH 7.5, 10 mM magnesium acetate, 4 mM dithiothreitol, 20% glycerol, with 25 µM dATP, dCTP, dGTP and 10 µM dTTP (^3H-labelled at 1.44 Ci/mmole) and 0.4 mg/ml activated calf thymus DNA as substrates, as described previously (see Barnes et al, op. cit). Assays were initiated by the addition of 0.025 to 0.06 units of enzyme 1 unit is the amount required to incorporate 250 pmoles of [^3H] dTMP in a standard assay), incubated for 10 minutes at 30°C and terminated by the addition of 200 µl of cold 10% trichloroacetic acid (TCA),10 mM sodium pyrophosphate. Precipitated labeled DNA was collected on glass fiber filter plates, washed, dried, and counted in a liquid scintillation counter. Determination of Ki values. DNA polymerase activity was measured in a 96-well plate format in the absence of dGTP or dATP, depending on the structure of the test compound. Each 25 µl assay contained 30 mM Tris, pH 7.5, 10 mM magnesium acetate, 4 mM dithiothreitol, 20% glycerol, with 25 µM dATP, dCTP, and 10 µM dTTP (^3H-labelled at 1.44 Ci/mmole) and 0.4 mg/ml activated calf thymus DNA as substrates, as described previously. […] Assays were initiated by the addition of 0.025 to 0.06 units of enzyme (1 unit is the amount required to incorporate 250 pmoles of [^3H] dTMP in a standard assay), incubated for 10 minutes at 30 °C and terminated by the addition of 200 µl of cold 10% trichloroacetic acid, 10 mM sodium pyrophosphate. Precipitated labeled DNA was collected on glass fiber filter plates, washed, dried, and counted in a liquid scintillation counter. Ki is the concentration of test compound that reduces the control polymerase IIIC activity by 50 percent.
(§2) MIC values were determined for the Gram positive bacteria Bacillus subtilis, Staphylococcus aureus (two strains), Enterococcus fecalis, Enterococcus fecium, and for the Gram negative bacterium Escherichia coli.

A further assay concerns E. coli. The assay is described as above. The assay is classed as cell-based, Escherichia coli. The following applies: Escherichia coli; HBI medium, 16 to 18 hours at 37°C; read-out: MIC (µg/ml) E. coli. How it is done: (§3) The following methods were used to characterize representative compounds. Minimal Inhibitory Concentration (MIC) determinations. MIC values were determined in 96 well plates, with bacterial growth monitored at OD 600 nm in 200µl following an initial bacterial seeding at approximately 1x10^5 colony forming units (CFU)/ml. Each drug is evaluated at five concentrations, with five data points at each dilution. MIC values (µg/ml) were determined against actively growing cultures in Heart-Brain Infusion (HBI) medium. Cell growth in cultures supplemented with a test compound was calculated as a percent of control at OD 600 nm after 16 to 18 hours at 37°C. This plate format conserves test compound and provides precise, quantitative data with low standard deviation determinations. Polymerase IIIC (Pol IIIC) assay. DNA polymerase activity (or inhibition thereof) was measured in a 96-well plate format. B. subtilis Pol IIIC was isolated as described by Hammond and Brown (Protein Expr. Purif., 3: 65-70 (1992)). Each 25 µl assay contained 30 mM Tris, pH 7.5, 10 mM magnesium acetate, 4 mM dithiothreitol, 20% glycerol, with 25 µM dATP, dCTP, dGTP and 10 µM dTTP (^3H-labelled at 1.44 Ci/mmole) and 0.4 mg/ml activated calf thymus DNA as substrates, as described previously (see Barnes et al, op. cit). Assays were initiated by the addition of 0.025 to 0.06 units of enzyme 1 unit is the amount required to incorporate 250 pmoles of [^3H] dTMP in a standard assay), incubated for 10 minutes at 30°C and terminated by the addition of 200 µl of cold 10% trichloroacetic acid (TCA),10 mM sodium pyrophosphate. Precipitated labeled DNA was collected on glass fiber filter plates, washed, dried, and counted in a liquid scintillation counter. Determination of Ki values. DNA polymerase activity was measured in a 96-well plate format in the absence of dGTP or dATP, depending on the structure of the test compound. Each 25 µl assay contained 30 mM Tris, pH 7.5, 10 mM magnesium acetate, 4 mM dithiothreitol, 20% glycerol, with 25 µM dATP, dCTP, and 10 µM dTTP (^3H-labelled at 1.44 Ci/mmole) and 0.4 mg/ml activated calf thymus DNA as substrates, as described previously. To each well were added 2 µl of compound solution to give final concentrations ranging from 20 - 0.027 µg/ml in the assay. Assays were initiated by the addition of 0.025 to 0.06 units of enzyme (1 unit is the amount required to incorporate 250 pmoles of [^3H] dTMP in a standard assay), incubated for 10 minutes at 30 °C and terminated by the addition of 200 µl of cold 10% trichloroacetic acid, 10 mM sodium pyrophosphate. Precipitated labeled DNA was collected on glass fiber filter plates, washed, dried, and counted in a liquid scintillation counter. Ki is the concentration of test compound that reduces the control polymerase IIIC activity by 50 percent.
as §2

The subject of the next assay is S. aureus. Described as above. Format: cell-based, Staphylococcus aureus. As to conditions: Staphylococcus aureus; HBI medium, 16 to 18 hours at 37°C; read-out: MIC (µg/ml) S. aureus. On the procedure:
as §3, §2

In the next assay the test system is S.aureus (Smith). Described as above. The assay is classed as cell-based, Staphylococcus aureus. The following applies: Staphylococcus aureus; HBI medium, 16 to 18 hours at 37°C; read-out: MIC (µg/ml) S.aureus (Smith). How it is done:
as §1, §2

Another assay relates to E. fecium. The assay is described as above. Format: cell-based, Enterococcus fecium. The following applies: Enterococcus; HBI medium, 16 to 18 hours at 37°C; read-out: MIC (µg/ml) E. fecium. How it is done: as §1, §2
In a further assay the target is T1, B. subtilis Pol IIIC (Bacillus subtilis, UniProt P13267).
T1 construct: made in house
In words: Polymerase IIIC (Pol IIIC) assay, determination of Ki values. Format: biochemical. The following applies: Ki (µM) Pol IIIC, assay in absence of dGTP or dATP; Ki is the concentration that reduces control polymerase IIIC activity by 50 percent. On the procedure: as §1

Another assay deals with E. fecalis. The experiment in a line: Minimal Inhibitory Concentration (MIC) determination, 96 well plates. The assay is classed as cell-based, Enterococcus fecalis. As to conditions: Enterococcus; HBI medium, 16 to 18 hours at 37°C; read-out: MIC (µg/ml) E. fecalis. On the procedure: as §1, §2

Converted amounts (≈) assume the structure as drawn. A value given as a limit tells only on which side of the number the result lay.

T1 sequence (P13267 whole entry): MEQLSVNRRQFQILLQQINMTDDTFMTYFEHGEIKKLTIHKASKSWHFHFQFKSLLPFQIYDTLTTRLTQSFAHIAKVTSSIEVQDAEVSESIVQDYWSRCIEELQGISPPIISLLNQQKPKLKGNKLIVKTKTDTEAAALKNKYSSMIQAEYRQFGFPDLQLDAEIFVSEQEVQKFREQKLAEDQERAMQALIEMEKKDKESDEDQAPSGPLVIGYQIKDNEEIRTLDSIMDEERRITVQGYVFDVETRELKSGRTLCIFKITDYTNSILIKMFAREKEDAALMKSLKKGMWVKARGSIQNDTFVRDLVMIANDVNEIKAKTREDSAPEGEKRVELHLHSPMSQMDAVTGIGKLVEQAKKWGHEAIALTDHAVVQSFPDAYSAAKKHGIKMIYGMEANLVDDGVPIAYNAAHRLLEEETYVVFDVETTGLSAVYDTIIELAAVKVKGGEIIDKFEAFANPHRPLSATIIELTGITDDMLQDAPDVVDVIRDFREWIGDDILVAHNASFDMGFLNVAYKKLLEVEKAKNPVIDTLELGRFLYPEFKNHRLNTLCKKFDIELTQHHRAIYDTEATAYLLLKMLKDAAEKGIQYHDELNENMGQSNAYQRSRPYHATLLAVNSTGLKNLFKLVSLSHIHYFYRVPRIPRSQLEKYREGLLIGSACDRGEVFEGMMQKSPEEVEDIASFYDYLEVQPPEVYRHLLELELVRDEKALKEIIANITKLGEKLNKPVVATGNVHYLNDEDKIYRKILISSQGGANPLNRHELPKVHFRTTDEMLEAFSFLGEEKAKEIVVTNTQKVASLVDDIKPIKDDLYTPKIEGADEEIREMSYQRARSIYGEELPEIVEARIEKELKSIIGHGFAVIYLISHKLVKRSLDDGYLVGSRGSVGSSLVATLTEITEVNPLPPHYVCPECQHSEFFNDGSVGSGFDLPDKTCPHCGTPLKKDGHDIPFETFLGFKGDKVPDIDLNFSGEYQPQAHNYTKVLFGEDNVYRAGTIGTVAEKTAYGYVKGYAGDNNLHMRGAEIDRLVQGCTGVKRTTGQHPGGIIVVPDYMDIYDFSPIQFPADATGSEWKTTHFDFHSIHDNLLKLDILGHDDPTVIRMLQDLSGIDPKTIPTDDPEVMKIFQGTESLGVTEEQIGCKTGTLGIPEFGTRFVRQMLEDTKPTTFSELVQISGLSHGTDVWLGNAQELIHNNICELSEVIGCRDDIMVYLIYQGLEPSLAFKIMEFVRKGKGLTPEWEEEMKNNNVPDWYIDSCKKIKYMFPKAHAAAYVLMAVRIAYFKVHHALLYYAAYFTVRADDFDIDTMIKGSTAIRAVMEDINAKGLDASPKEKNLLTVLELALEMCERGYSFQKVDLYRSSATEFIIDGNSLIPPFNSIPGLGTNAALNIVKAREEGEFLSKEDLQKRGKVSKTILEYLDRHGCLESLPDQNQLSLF

`CCc1cccc(Nc2cc(=O)n(CCCCN3CCN(c4cc5c(cc4F)c(=O)c(C(=O)O)cn5C4CC4)CC3)c(=O)[nH]2)c1` [Compound 66, 3-{4-[1-(1-cyclopropyl-3-carboxy-4-oxo-6-fluoro-7-quinolyl)-4-piperazinyl]butyl}-6-(3-ethylanilino)uracil]: the MIC with B. subtilis turned out to be 0.313 µg/mL (≈ 0.508 µM); with E. coli it was 6.1 µg/mL (≈ 9.89 µM); with S. aureus, 0.95 µg/mL (≈ 1.54 µM); with S.aureus (Smith), 0.625 µg/mL (≈ 1.01 µM); in the assay on E. fecium it was 3.7 µg/mL (≈ 6 µM); in the assay on E. fecalis it was 1.25 µg/mL (≈ 2.03 µM). Further, the affinity at B. subtilis Pol IIIC corresponds to a Ki of 0.26 µM.
On to `O=C(O)c1cn(C2CC2)c2cc(N3CCN(CCCCn4c(=O)cc(Nc5ccc6c(c5)CCC6)[nH]c4=O)CC3)c(F)cc2c1=O` [Compound 67, 3-{4-[1-(1-cyclopropyl-3-carboxy-4-oxo-6-fluoro-7-quinolyl)-4-piperazinyl]butyl}-6-(5-indanylamino)uracil], for which the MIC in the assay with B. subtilis was found to be 0.23 µg/mL (≈ 0.366 µM); in the assay with E. coli, 10 µg/mL (≈ 15.9 µM); with S. aureus, 0.625 µg/mL (≈ 0.994 µM); with S.aureus (Smith), 0.313 µg/mL (≈ 0.498 µM); with E. fecium it was 2.5 µg/mL (≈ 3.98 µM); with E. fecalis it was 1.25 µg/mL (≈ 1.99 µM). At B. subtilis Pol IIIC, this molecule returned an inhibition constant Ki of 0.034 µM.
On to `O=C(O)c1cn(C2CC2)c2cc(N3CCN(CCCCn4c(=O)cc(NCc5ccc(Cl)c(Cl)c5)[nH]c4=O)CC3)c(F)cc2c1=O` [Compound 68, 3-{4-[1-(1-cyclopropyl-3-carboxy-4-oxo-6-fluoro-7-quinolyl)-4-piperazinyl]butyl}-6-(3,4-dichlorobenzylamino)uracil], for which the MIC was found to be 0.95 µg/mL (≈ 1.41 µM) with B. subtilis; 12.5 µg/mL (≈ 18.6 µM) with E. coli; 1.25 µg/mL (≈ 1.86 µM) in the assay with S. aureus; 0.625 µg/mL (≈ 0.931 µM) in the assay on S.aureus (Smith); 1.25 µg/mL (≈ 1.86 µM) in the assay with E. fecium; 40 µg/mL (≈ 59.6 µM) in the assay with E. fecalis. Besides, the Ki on B. subtilis Pol IIIC amounted to 0.047 µM.
As to `CCc1cc(Nc2cc(=O)n(CCCCN3CCN(c4cc5c(cc4F)c(=O)c(C(=O)O)cn5C4CC4)C(C)C3)c(=O)[nH]2)ccc1C` (centres unmarked) [Compound 69, 3-{4-[1-(1-cyclopropyl-3-carboxy-4-oxo-6-fluoro-7-quinolyl)-2-methyl-4-piperazinyl]butyl}-6-(3-ethyl-4-methylanilino)uracil], the MIC in the assay with B. subtilis came to 0.23 µg/mL (≈ 0.357 µM); in the assay on E. coli, 30 µg/mL (≈ 46.5 µM); in the assay on S. aureus it was 0.625 µg/mL (≈ 0.969 µM); with S.aureus (Smith), 0.46 µg/mL (≈ 0.713 µM); with E. fecium it was 1.25 µg/mL (≈ 1.94 µM); in the assay with E. fecalis it was 0.95 µg/mL (≈ 1.47 µM). Moreover, the Ki on B. subtilis Pol IIIC turned out to be 0.026 µM.
On to `CCc1cc(Nc2cc(=O)n(CCCCN3CCN(c4c(F)cc5c(=O)c(C(=O)O)cn(C6CC6)c5c4F)C[C@@H]3C)c(=O)[nH]2)ccc1C` [Compound 71, (S)-3-{4-[1-(1-cyclopropyl-3-carboxy-4-oxo-6,8-difluoro-7-quinolyl)-3-methyl-4-piperazinyl]butyl}-6-(3-ethyl-4-methylanilino)uracil], for which the MIC with B. subtilis was determined as 0.156 µg/mL (≈ 0.235 µM); in the assay on E. coli, 5 µg/mL (≈ 7.54 µM); in the assay with S. aureus, 0.313 µg/mL (≈ 0.472 µM); in the assay on S.aureus (Smith), 0.156 µg/mL (≈ 0.235 µM); in the assay on E. fecium it was 1.87 µg/mL (≈ 2.82 µM); with E. fecalis it was 1.25 µg/mL (≈ 1.89 µM). This molecule had a Ki at B. subtilis Pol IIIC of 0.007 µM.
`CCc1cc(Nc2cc(=O)n(CCCCN3CCN(c4c(F)cc5c(=O)c(C(=O)O)cn(C6CC6)c5c4F)C[C@H]3C)c(=O)[nH]2)ccc1C` [Compound 72, (R)-3-{4-[1-(1-cyclopropyl-3-carboxy-4-oxo-6,8-difluoro-7-quinolyl)-3-methyl-4-piperazinyl]butyl}-6-(3-ethyl-4-methylanilino)uracil]: the MIC in the assay with B. subtilis was 0.156 µg/mL (≈ 0.235 µM); in the assay with E. coli it was 20 µg/mL (≈ 30.2 µM); with S. aureus it was 0.625 µg/mL (≈ 0.943 µM); with S.aureus (Smith), 0.625 µg/mL (≈ 0.943 µM); with E. fecium, 1.25 µg/mL (≈ 1.89 µM); in the assay with E. fecalis, 1.25 µg/mL (≈ 1.89 µM). For the same molecule, on B. subtilis Pol IIIC, the inhibition constant (Ki) turned out to be 0.004 µM.
For the molecule `CCc1cc(Nc2ccc(CCCCN3CCN(c4cc5c(cc4F)c(=O)c(C(=O)O)cn5CC)CC3)c(=O)[nH]2)ccc1C` [Compound 78, 3-{4-[1-(1-ethyl-3-carboxy-4-oxo-6-fluoro-7-quinolyl)-4-piperazinyl]butyl}-6-(3-ethyl-4-methylanilino)-2-pyridone], the MIC with B. subtilis was 0.625 µg/mL (≈ 1.04 µM); with E. coli, greater than 80 µg/mL; in the assay on S. aureus it was 1.25 µg/mL (≈ 2.08 µM); in the assay with S.aureus (Smith), 2.5 µg/mL (≈ 4.15 µM); in the assay on E. fecium it was 5 µg/mL (≈ 8.31 µM); with E. fecalis, 5 µg/mL (≈ 8.31 µM). This molecule also yielded a Ki on B. subtilis Pol IIIC of 2.4 µM.
As to `CCc1cc(Nc2cc(=O)n(CCCCN3CCN(c4ncc5c(=O)c(C(=O)O)cn(CC)c5n4)CC3)c(=O)[nH]2)ccc1C` [Compound 79, 3-{4-[1-(1-ethyl-3-carboxy-4-oxo-6,8-diaza-7-quinolyl)-4-piperazinyl]butyl}-6-(3-ethyl-4-methylanilino)uracil], the MIC with B. subtilis was 0.156 µg/mL (≈ 0.259 µM); in the assay on E. coli, greater than 80 µg/mL; with S. aureus, 1.25 µg/mL (≈ 2.07 µM); in the assay with S.aureus (Smith), 0.95 µg/mL (≈ 1.58 µM); in the assay with E. fecium, 3.7 µg/mL (≈ 6.14 µM); with E. fecalis, 2.5 µg/mL (≈ 4.15 µM). This molecule had a Ki at B. subtilis Pol IIIC of 0.028 µM.

The record behind these values is EP1401829B1, “NOVEL HETEROCYCLIC ANTIBACTERIAL COMPOUNDS” (Microbiotix, Inc., priority 2001, dated 2002).
